Results: ChEMBL document CHEMBL1142342, “Lignans from the fruits of Forsythia suspensa” (Bioorg Med Chem Lett, 2008)
Activity calls are given as the source filed them. The rule behind the calls is not given here.

How the values were obtained:
LLC-PK1 [1] = test: Protective effect against 3-morpholinosydnonimine-induced cell death in pig LLC-PK1 cells after 1 hr by MTT assay; type: functional, cell-based; conditions: Sus scrofa
LLC-PK1 [2] = test: Inhibition of 3-morpholinosydnonimine-induced LDH release in pig LLC-PK1 cells at 50 uM after 24 hrs; type: functional, cell-based; conditions: Sus scrofa
LLC-PK1 [3] = test: Inhibition of 3-morpholinosdynonimine-induced LDH release in pig LLC-PK1 cells at 10 uM after 24 hrs; type: functional, cell-based; conditions: Sus scrofa
LLC-PK1 [4] = test: Protective effect against 3-morpholinosydnonimine-induced cell death in pig LLC-PK1 cells assessed as viability at 50 uM after 1 hr by MTT assay; type: functional; conditions: Sus scrofa, LLC-PK1, 1 h; read-out: Activity
LLC-PK1 [5] = test: Cytotoxicity against pig LLC-PK1 cells; type: cell-based, Sus scrofa
LLC-PK1 [6] = test: Inhibition of 3-morpholinosydnonimine-induced LDH release in pig LLC-PK1 cells after 24 hrs; type: functional, cell-based; conditions: Sus scrofa

COc1cc(O)cc([C@H]2OC[C@H](C(=O)c3ccc(O)c(OC)c3)[C@@H]2CO)c1 [FORSYTHIALAN A]
Activity (LLC-PK1 [1]): Dose-dependent effect
Activity (LLC-PK1 [2]): Active
Activity (LLC-PK1 [3]): Active
viability at 50 µM (LLC-PK1 [4]): 95%
Activity (LLC-PK1 [5]): Non-toxic

COc1cc(O)cc([C@H]2OC[C@H](C(=O)c3ccc(OC)c(OC)c3)[C@@H]2CO)c1 [FORSYTHIALAN B]
Activity (LLC-PK1 [1]): Dose-dependent effect
Activity (LLC-PK1 [6]): Active
viability at 50 µM (LLC-PK1 [4]): 85%
Activity (LLC-PK1 [5]): Non-toxic
